Data as given in PMC7562955 (Nature Communications, 2020).

Biological target: T1, mouse TLR7 (Mus musculus, UniProt P58681)
T1 construct: host or cells: HEK293 (293XL-mTLR7)
T1 sequence (P58681 27-1050): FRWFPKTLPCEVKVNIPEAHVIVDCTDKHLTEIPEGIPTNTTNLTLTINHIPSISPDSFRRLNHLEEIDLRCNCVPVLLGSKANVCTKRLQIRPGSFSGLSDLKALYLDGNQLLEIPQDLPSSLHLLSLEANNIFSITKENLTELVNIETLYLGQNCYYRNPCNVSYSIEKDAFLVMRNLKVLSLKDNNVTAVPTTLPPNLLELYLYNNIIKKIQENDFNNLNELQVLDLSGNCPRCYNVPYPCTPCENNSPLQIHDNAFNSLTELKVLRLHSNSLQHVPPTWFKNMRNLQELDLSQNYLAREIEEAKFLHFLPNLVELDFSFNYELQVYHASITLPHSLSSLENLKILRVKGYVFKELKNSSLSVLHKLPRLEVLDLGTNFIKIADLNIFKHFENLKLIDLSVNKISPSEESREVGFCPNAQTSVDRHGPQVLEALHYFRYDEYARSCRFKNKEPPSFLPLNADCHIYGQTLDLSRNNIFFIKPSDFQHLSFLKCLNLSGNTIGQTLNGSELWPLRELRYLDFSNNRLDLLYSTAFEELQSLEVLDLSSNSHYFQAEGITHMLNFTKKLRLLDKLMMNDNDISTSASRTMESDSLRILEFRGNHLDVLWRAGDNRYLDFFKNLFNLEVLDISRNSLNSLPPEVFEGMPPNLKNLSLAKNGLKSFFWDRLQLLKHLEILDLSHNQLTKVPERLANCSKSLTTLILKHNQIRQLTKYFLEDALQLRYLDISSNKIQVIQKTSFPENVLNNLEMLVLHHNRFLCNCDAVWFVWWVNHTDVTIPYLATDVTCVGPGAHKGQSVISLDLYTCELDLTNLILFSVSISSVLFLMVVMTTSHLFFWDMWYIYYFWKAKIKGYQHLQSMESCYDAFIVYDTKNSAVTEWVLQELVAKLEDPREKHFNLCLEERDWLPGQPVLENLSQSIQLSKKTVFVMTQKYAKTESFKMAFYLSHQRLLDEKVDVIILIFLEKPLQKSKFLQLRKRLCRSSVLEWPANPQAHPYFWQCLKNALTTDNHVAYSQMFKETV
Test: Mouse TLR7 reporter gene assay (NF-kB luciferase, HEK293)
Assay type: cell-based
Method: Compounds were dissolved in dimethyl sulfoxide. The day before transfection, mouse TLR7 genestably-expressing HE293 cell line (293XL-mTLR7 cell, InvivoGen, USA) and mouse TLR9 genestably-expressing HEK293 cell line (293-mTLR9 cell, InvivoGen) were seeded in collagen-coated 6-well plate (AGC techno glass) at 3 × 10^5 cells/well in DMEM (GIBCO) with 10% fetal bovine serum (GIBCO), and 10 μg ml^−1 Blastcidin S HCl (GIBCO) and incubated at 37 °C in 5% CO2. The plates were incubated over-night and then cotransfected with 1 μg (mouse TLR7) or 0.3 μg (mouse TLR9) of pNF-kB-Luciferase reporter in a 10:1 ratio with 4 μl of FuGene6 transfection reagent (Promega corporation, USA) following the manufacturer’s instructions. The plates were incubated 24 h. The cells re-seeded into 96-well plate (AGC techno glass) at 2 × 10^4 cells/well in DMEM (GIBCO) with 10% fetal bovine serum (GIBCO), and 10 μg ml^−1 Blastcidin S HCl (GIBCO) and then inhibition with various concentrations of compound. HCQ (mouse TLR7/9, Acros Organics, United Kingdom) was used as positive control. After 30 min, R848 (mouse TLR7/8 ligand) or CpG1826 (mouse TLR9 ligand, Hokkaido System Science Co., Ltd.) added to each well, wherein each final concentration were adjusted to 200 nM R848 (mouse TLR7) or 100 nM CpG1826 (mouse TLR9). The plates were then incubated an additional 6 h at 37 °C in 5% CO2, and then the luciferase activity was measured as activation of mouse TLR7 and 9. The luciferase activity was evaluated as follows: Bright-GloTM Luciferase Assay System (Promega) was added to the incubated sample (100 μl/well); after 2 min, the luminescence intensity of each sample was measured with a luminometer (Envision).

[1] = compound 0.0001 nM (as headed), R848 200 nM
[2] = compound 0.001 nM (as headed), R848 200 nM
[3] = compound 0.003 nM (as headed), R848 200 nM
[4] = compound 0.01 nM (as headed), R848 200 nM
[5] = compound 0.03 nM (as headed), R848 200 nM
[6] = compound 0.1 nM (as headed), R848 200 nM
[7] = compound 0.3 nM (as headed), R848 200 nM
[8] = compound 1 nM (as headed), R848 200 nM
[9] = compound 3 nM (as headed), R848 200 nM
[10] = compound 10 nM (as headed), R848 200 nM
[11] = compound 30 nM (as headed), R848 200 nM
[12] = compound 100 nM (as headed), R848 200 nM

Structure (SMILES) | selectivity mouse TLR7 vs TLR9 | IC50 (R848 200 nM) [nM] | mouse TLR7 activity, reporter signal [1] | mouse TLR7 activity, reporter signal [2] | mouse TLR7 activity, reporter signal [3] | mouse TLR7 activity, reporter signal [4] | mouse TLR7 activity, reporter signal [5] | mouse TLR7 activity, reporter signal [6] | mouse TLR7 activity, reporter signal [7] | mouse TLR7 activity, reporter signal [8] | mouse TLR7 activity, reporter signal [9] | mouse TLR7 activity, reporter signal [10] | mouse TLR7 activity, reporter signal [11] | mouse TLR7 activity, reporter signal [12]
CCOc1nc(C)c2nc(-c3cncc(F)c3)n(Cc3ccc(CN4C[C@@H]5C[C@H]4CN5C)cc3)c2n1 [Cpd-7] | TLR7-selective | 192 | 7166 | 5248 | 4474 | 4918 | 5112 | 4262 | 2860 | 1240 | 1308 | 550 | 0 | 0
CCN(CCO)CCCC(C)Nc1ccnc2cc(Cl)ccc12 (centres unmarked) [HCQ, hydroxychloroquine, reference compound] |  |  | 7166 | 7642 | 8310 | 7288 | 6268 | 6670 | 9264 | 7190 | 9456 | 3934 | 558 | 1958
